Source: paper PMC4113814, “Bioactive Cembrane Derivatives from the Indian Ocean Soft Coral, Sinularia kavarattiensis” (Marine Drugs, 2014)
In brackets after ≈: the same amount, converted by molar mass.

Tests used:
[1] = test system: CHIKV replicon; assay: CHIKV replicon assay, Cell-IQ live cell imaging, EGFP fluorescence intensity; details: 50 and 100 μM, 48 h
[2] = test system: TNF-α; assay: TNF-α release in supernatants of LPS-treated primary microglial cells (ELISA); assay type: cell-based, Wistar rats; details: 72 h; for TNF-α release: LPS-treated; for IC50: Rattus norvegicus, inhibition of LPS-induced cytokine release, read-out: TNF-α IC50
Experimental: (§1) Primary microglial cell cultures were prepared from brains of newborn Wistar rats. Ethics approval for the experiments was granted by the EBIOTEC Review Board (Valter Lombardi, Iván Carrera and Lucía Fernández-Novoa; Project Identification Code: Sinularia Project October 2013; approved 30 October 2013). The neocortex of one-day-old postnatal rats was aseptically dissected out, and the meninges and blood vessels were carefully removed. Following cutting in a medium containing 20% horse serum, the suspension was filtered through a […] and transferred as a single cell suspension to culture dishes, using 5.0 mL of medium per dish. The cultures were incubated at 37 °C in an atmosphere containing 5% CO2. The culture medium consisted of Minimum Essential Medium Eagle, supplemented with L-glutamine, amino acids, vitamins, penicillin, gentamicin, sodium bicarbonate and 20% heat-inactivated horse serum. The medium was changed twice a week. After 1 week, the concentration of horse serum was reduced to 10%. After sixteen days in culture, cells were treated with 1 μg/mL of lipopolysaccharide (LPS). […] Positive controls were treated only with LPS, while negative controls were treated with complete medium. After 72 h of incubation, cells were counted, and 2.5 mL of the supernatants were collected from each well and frozen at −40 °C for cytokine analyses. All experiments were carried out twice.
(§2) The supernatants obtained from cell cultures were analyzed for TNF-α, IL-1β, IL-4, IL-6, IL-8, IL-10 and IL-18 using commercially available ELISA kits following the manufacturers’ instructions. All samples were assayed in duplicate, and equivocal results were repeated. The cytokine concentration was calculated from a standard curve of the corresponding recombinant cytokine.
(§3) The cytotoxicity of the compounds was measured by the colorimetric methyl thiazol tetrazolium (MTT) assay and scored as a percentage of the absorbance reduction of treated cultures versus untreated control cultures. Primary microglial cell cultures were seeded into 96-well microplates at 10^4 cells per well and allowed to grow for 24 h. […] The compounds were serially diluted in complete culture medium with two-fold dilutions (100, 50, 25, 12.5, 6.25, 3.12 and 1.56 μg/mL for in vitro cytotoxicity; 12.5, 6.25, 3.12, 1.56, 0.78 and 0.39 μg/mL for cytokine release). Different concentrations of the compounds were added to each well, and Tamoxifen was used as a positive control, with concentrations ranging from 50 to 1.56 μg/mL. Plates were incubated at 37 °C for 72 h under 5% CO2 atmosphere. Then, the 50 μL of MTT-PBS solution in culture medium were added to each well. The plates were further incubated for 4 h under the same conditions. The medium was then removed and replaced with 200 μL of DMSO to solubilize the MTT formazan product. The solutions were shaken for 20 min, and the absorbance was measured at 570 nm. […] Each value represents the mean of triplicate determinations. The IC50 values were calculated from the compound concentration-response curves.

[3] = test system: IL-6; assay: IL-6 release in supernatants of LPS-treated primary microglial cells (ELISA); assay type: cell-based, Wistar rats; details: 72 h; for IL-6 release: LPS-treated; for IC50: Rattus norvegicus, inhibition of LPS-induced cytokine release, read-out: IL-6 IC50
Experimental: as §1, §2, §3

[4] = test system: IL-10; assay: IL-10 release in supernatants of LPS-treated primary microglial cells (ELISA); assay type: cell-based, Wistar rats; details: 72 h; for IL-10 release: LPS-treated; for IC50: Rattus norvegicus, inhibition of LPS-induced cytokine release, read-out: IL-10 IC50
Experimental: as §1, §2, §3

[5] = test system: CHIKV replicon; assay: microbe, parasite or virus in culture; details: Chikungunya virus, 48 h, read-out: inhibition of the CHIKV replicon (Rluc marker levels)
[6] = test system: IL-4; assay: IL-4 release in supernatants of LPS-treated primary microglial cells (ELISA); assay type: cell-based, Wistar rats; details: 72 h; for IL-4 release: LPS-treated; for IC50: Rattus norvegicus, inhibition of LPS-induced cytokine release, read-out: IL-4 IC50
Experimental: as §1, §2
as §3, with “The compounds were serially diluted in complete culture medium with two-fold dilutions (100, 50, 25, 12.5, 6.25, 3.12 and 1.56 μg/mL for in vitro cytotoxicity; 12.5, 6.25, 3.12, 1.56, 0.78 and 0.39 μg/mL for cytokine release).” left out

C=C(C)[C@@H]1C/C=C2\C(=O)O[C@@H](C[C@]3(C)CC(=O)[C@H](CC(=O)C1)O3)[C@@H]2O [Compound 1, 5-epi-sinuleptolide]
decrease in EGFP marker fluorescence intensity [1]: strongest decrease
TNF-α release ([2]; C1: 1.0 μg/mL): 33.5 ± 11.2 pg/mL
TNF-α release ([2]; C2: 2.5 μg/mL): 31.2 ± 9.2 pg/mL
TNF-α release ([2]; C3: 5.0 μg/mL): 33.6 ± 11.1 pg/mL
IC50 [2]: > 12.5 µg/mL
IL-6 release ([3]; C1: 1.0 μg/mL): 14.2 ± 1.8 pg/mL
IL-6 release ([3]; C2: 2.5 μg/mL): 11.7 ± 1.2 pg/mL
IL-6 release ([3]; C3: 5.0 μg/mL): 13.5 ± 1.4 pg/mL
IC50 [3]: > 12.5 µg/mL
IL-10 release ([4]; C1: 1.0 μg/mL): 7.6 ± 1.6 pg/mL
IL-10 release ([4]; C2: 2.5 μg/mL): 8.2 ± 1.8 pg/mL
IL-10 release ([4]; C3: 5.0 μg/mL): 8.7 ± 2.1 pg/mL
IC50 [4]: > 12.5 µg/mL
inhibition at 100 µM [5]: > 60%
IL-4 release ([6]; C1: 1.0 μg/mL): 1.9 ± 0.9 pg/mL
IL-4 release ([6]; C2: 2.5 μg/mL): 2.1 ± 0.8 pg/mL
IL-4 release ([6]; C3: 5.0 μg/mL): 1.9 ± 0.4 pg/mL
IC50 [6]: > 12.5 µg/mL

C=C(C)[C@@H]1C/C=C2\C(=O)O[C@@H](C[C@]3(C)CC(=O)[C@@H](CC(=O)C1)O3)[C@@H]2O [Compound 2, sinuleptolide]
decrease in EGFP marker fluorescence intensity [1]: strongest decrease
TNF-α release ([2]; C1: 1.0 μg/mL): 34.1 ± 9.1 pg/mL
TNF-α release ([2]; C2: 2.5 μg/mL): 12.3 ± 3.4 pg/mL
TNF-α release ([2]; C3: 5.0 μg/mL): 9.8 ± 3.3 pg/mL
IC50 [2]: 1.7 µg/mL (≈ 4.88 µM)
IL-6 release ([3]; C1: 1.0 μg/mL): 12.1 ± 0.9 pg/mL
IL-6 release ([3]; C2: 2.5 μg/mL): 7.8 ± 1.4 pg/mL
IL-6 release ([3]; C3: 5.0 μg/mL): 8.5 ± 1.3 pg/mL
IC50 [3]: 2.2 µg/mL (≈ 6.31 µM)
IL-10 release ([4]; C1: 1.0 μg/mL): 7.9 ± 3.4 pg/mL
IL-10 release ([4]; C2: 2.5 μg/mL): 17.4 ± 2.3 pg/mL
IL-10 release ([4]; C3: 5.0 μg/mL): 18.5 ± 1.9 pg/mL
IC50 [4]: 0.5 µg/mL (≈ 1.44 µM)
inhibition at 100 µM [5]: > 60%
IL-4 release ([6]; C1: 1.0 μg/mL): 2.1 ± 0.9 pg/mL
IL-4 release ([6]; C2: 2.5 μg/mL): 15.5 ± 2.3 pg/mL
IL-4 release ([6]; C3: 5.0 μg/mL): 18.4 ± 1.8 pg/mL
IC50 [6]: 0.5 µg/mL (≈ 1.44 µM)

C=C(C)C1CCC23OC2C(CC2(C)CC(=O)C(CC(=O)C1)O2)OC3=O (stereo not drawn) [Compound 3, scabrolide D]
decrease in EGFP marker fluorescence intensity [1]: inactive
TNF-α release ([2]; C1: 1.0 μg/mL): 33.6 ± 11.2 pg/mL
TNF-α release ([2]; C2: 2.5 μg/mL): 24.5 ± 6.9 pg/mL
TNF-α release ([2]; C3: 5.0 μg/mL): 35.4 ± 12.4 pg/mL
IC50 [2]: > 12.5 µg/mL
IL-6 release ([3]; C1: 1.0 μg/mL): 12.9 ± 1.1 pg/mL
IL-6 release ([3]; C2: 2.5 μg/mL): 11.5 ± 1.3 pg/mL
IL-6 release ([3]; C3: 5.0 μg/mL): 13.2 ± 1.2 pg/mL
IC50 [3]: > 12.5 µg/mL
IL-10 release ([4]; C1: 1.0 μg/mL): 7.5 ± 1.4 pg/mL
IL-10 release ([4]; C2: 2.5 μg/mL): 6.8 ± 1.5 pg/mL
IL-10 release ([4]; C3: 5.0 μg/mL): 6.9 ± 1.5 pg/mL
IC50 [4]: > 12.5 µg/mL
inhibition at 100 µM [5]: 44%
IL-4 release ([6]; C1: 1.0 μg/mL): 1.5 ± 0.9 pg/mL
IL-4 release ([6]; C2: 2.5 μg/mL): 1.6 ± 0.8 pg/mL
IL-4 release ([6]; C3: 5.0 μg/mL): 1.7 ± 0.5 pg/mL
IC50 [6]: > 12.5 µg/mL

C=C(C)[C@@H]1CC(=O)[C@H]2[C@H](C1)[C@@H]1C(=O)O[C@@H]3C[C@@]4(C)O[C@H]2C(=O)[C@@H]4[C@H]13 [Compound 6, ineleganolide]
decrease in EGFP marker fluorescence intensity [1]: only moderate decreases
TNF-α release ([2]; C1: 1.0 μg/mL): 31.2 ± 2.9 pg/mL
TNF-α release ([2]; C2: 2.5 μg/mL): 30.6 ± 2.6 pg/mL
TNF-α release ([2]; C3: 5.0 μg/mL): 32.3 ± 3.2 pg/mL
IC50 [2]: > 12.5 µg/mL
IL-6 release ([3]; C1: 1.0 μg/mL): 13.2 ± 0.2 pg/mL
IL-6 release ([3]; C2: 2.5 μg/mL): 12.1 ± 0.9 pg/mL
IL-6 release ([3]; C3: 5.0 μg/mL): 11.8 ± 1.2 pg/mL
IC50 [3]: > 12.5 µg/mL
IL-10 release ([4]; C1: 1.0 μg/mL): 8.5 ± 3.2 pg/mL
IL-10 release ([4]; C2: 2.5 μg/mL): 7.8 ± 2.2 pg/mL
IL-10 release ([4]; C3: 5.0 μg/mL): 7.5 ± 2.1 pg/mL
IC50 [4]: > 12.5 µg/mL
inhibition at 100 µM [5]: 0.5 to 63%
IL-4 release ([6]; C1: 1.0 μg/mL): 1.8 ± 0.6 pg/mL
IL-4 release ([6]; C2: 2.5 μg/mL): 1.9 ± 0.6 pg/mL
IL-4 release ([6]; C3: 5.0 μg/mL): 1.9 ± 0.9 pg/mL
IC50 [6]: > 12.5 µg/mL
